Experimental data taken from US20210128528A1, “USE OF 5HT2A INVERSE AGONISTS FOR TREATING PSYCHOSIS” (Axovant Sciences GmbH, priority 2017, published 2021).

Key:
[1] = molecular target: T1, 5HT2A receptor (h5HT2A-Dx-U2OS cells) (Homo sapiens, UniProt P28223); test: cell-based
T1 construct: beta-galactosidase enzyme fragment for complementation (the print says only EFC; from my own knowledge of PathHunter it is the ProLink tag on the receptor's C-terminus); host or cells: U2OS (h5HT2A-Dx-U2OS)
Description: Cells were incubated with nelotanserin or clozapine for 90 minutes at 37° C. followed by addition of DiscoverX detection reagent for 60 minutes, after which luminescence was measured.
Drug treatment was performed for 90 minutes at 37 degrees Celsius followed by addition of DiscoverX detection reagent for 60 minutes at room temperature, after which luminescence was measured.
Cells were incubated with nelotanserin or clozapine for 90 minutes at 37° C. followed by addition of DiscoveRx detection reagent for 60 minutes, after which luminescence was measured.

[2] = tested on: C57Bl/6J male mice; test: DOI-induced head twitch response in mice; type: in vivo; conditions: Mus musculus
[3] = tested on: C57Bl/6J male mice; test: PCP-induced hyperlocomotion in open field activity monitors; type: in vivo; conditions: Mus musculus
Description: PCP-induced hyperlocomotion was measured in open field activity monitor chambers. […] All studies were performed in a blinded and randomized manner and potencies were calculated. Clozapine was used as the basis for comparison.
The data depicted in FIGS. 2-5, summarizes Mouse data—Male C57BL6J mice from JAX ˜12 weeks old. Studies were randomized and investigator was blinded. The figures contain three ways of analyzing the data obtained from the Versamax open field activity monitors on the same cohort of mice. The infrared beams in the chambers measure breaks in X, Y, and Z planes. Typically data are reported for Horizontal beam breaks and sometimes for distance travelled and stereotypy in studies involving PCP.
Male C57BL6 mice from JAX were used at 12-15 weeks of age, n=6 for all conditions). All mice were naïve at the time of testing. […] Mice were then treated with 0.9% saline (i.p.) or PCP (10 mg/kg, i.p.) and monitored for an additional 60 minutes. All measurements were recorded by VersaMax software, and experimenter was blinded to treatment. The summary figure is a compilation of distance travelled over the last 60 minutes with drug treatment. […] Data analyzed via two-way ANOVA followed by Sidak post hoc test to assess statistical differences between animals which received saline of PCP following nelotanserin, clozapine, or vehicle.
Male C57BL6 mice from JAX were used at 12-15 weeks of age, n=6 for all conditions). All mice were naïve at the time of testing. […] Mice were then treated with 0.9% saline (i.p.) or PCP (10 mg/kg, i.p.) and monitored for an additional 60 minutes. All measurements were recorded by VersaMax software, and experimenter was blinded to treatment. The summary figure is a compilation of the sum of beam breaks (X, Y plane) monitored over the last 60 minutes. […] Data analyzed via two-way ANOVA followed by Sidak post hoc test to assess statistical differences between animals which received saline of PCP following nelotanserin, clozapine, or vehicle.
Male C57BL6 mice from JAX were used at 12-15 weeks of age, n=6 for all conditions). All mice were naïve at the time of testing. […] Mice were then treated with 0.9% saline (i.p.) or PCP (10 mg/kg, i.p.) and monitored for an additional 60 minutes. All measurements were recorded by VersaMax software, and experimenter was blinded to treatment. The summary figure is a compilation of the sum of beam breaks (X, Y, Z stereotypy measures) monitored over the last 60 minutes. […] Data analyzed via two-way ANOVA followed by Sidak post hoc test to assess statistical differences between animals which received saline of PCP following nelotanserin, clozapine, or vehicle.

[4] = tested on: serotonin-induced intracellular calcium release; test: serotonin-induced intracellular calcium release assay; type: cell-based; conditions: FIG. 6
[5] = molecular target: T2, 5HT2C (Homo sapiens, UniProt P28335); test: selectivity of 5HT2A inverse agonist over 5HT2C; conditions: 5HT2A over 5HT2C
T2 sequence (P28335 33-458): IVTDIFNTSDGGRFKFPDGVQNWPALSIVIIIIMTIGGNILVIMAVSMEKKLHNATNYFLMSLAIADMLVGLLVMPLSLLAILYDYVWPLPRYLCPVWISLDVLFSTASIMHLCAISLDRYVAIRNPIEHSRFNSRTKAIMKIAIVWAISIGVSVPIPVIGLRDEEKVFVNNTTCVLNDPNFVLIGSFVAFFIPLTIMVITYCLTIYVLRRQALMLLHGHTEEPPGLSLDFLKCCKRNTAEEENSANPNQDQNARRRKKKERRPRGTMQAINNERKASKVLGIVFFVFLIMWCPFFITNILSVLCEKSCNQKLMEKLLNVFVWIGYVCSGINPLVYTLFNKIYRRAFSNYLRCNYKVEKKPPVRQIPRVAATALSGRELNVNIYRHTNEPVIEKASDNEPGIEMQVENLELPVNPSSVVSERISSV

[6] = tested on: panel of 66 receptors and ion channels; test: panel of 66 receptors and ion channels
[7] = compound alone, βarrestin2 recruitment

T1 sequence (P28223 whole entry, the tested form may be a part): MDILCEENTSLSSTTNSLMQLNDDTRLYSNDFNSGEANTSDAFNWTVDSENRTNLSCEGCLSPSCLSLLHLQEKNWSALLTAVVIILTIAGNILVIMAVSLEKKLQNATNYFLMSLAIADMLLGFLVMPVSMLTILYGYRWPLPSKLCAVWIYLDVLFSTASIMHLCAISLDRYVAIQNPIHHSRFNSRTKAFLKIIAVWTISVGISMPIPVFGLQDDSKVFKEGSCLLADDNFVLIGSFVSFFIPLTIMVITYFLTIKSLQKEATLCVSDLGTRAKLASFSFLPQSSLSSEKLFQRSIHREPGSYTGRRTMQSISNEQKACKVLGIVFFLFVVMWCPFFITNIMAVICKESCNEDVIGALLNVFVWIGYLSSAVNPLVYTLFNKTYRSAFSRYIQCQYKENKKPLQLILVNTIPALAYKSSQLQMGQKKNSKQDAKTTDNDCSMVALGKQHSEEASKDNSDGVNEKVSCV

With COc1ccc(NC(=O)Nc2ccc(F)cc2F)cc1-c1c(Br)cnn1C [Nelotanserin, nelotanserin] the EC50 [1] was 3.74 nM, the “% Max of 5HT” value [1, 7] was −2.21% and the Fold [1, 7] was 0.90 Fold. For the same compound, the IC50 ([1]; serotonin-induced, h5HT2A-Dx-U2OS cells, 90 minutes at 37° C., read-out: IC50 (SEM), antagonist of the recruitment of β-arrestin 2 to the 5HT2A receptor) was 3.74 nM, the ED50 ([2]; read-out: ED50 (95% CL), block of DOI-induced head twitches) was 2.4 mg/kg and the ED50 ([2]; read-out: ED 50 (95% confidence limits), DOI-induced head twitch of FIG. 5) was 2.4 mg/kg. The ED50 ([3]; ip, 1 h, beam breaks X, Y, Z, nelotanserin 1-10 mg/kg i.p., PCP 10 mg/kg i.p., last 60 minutes, read-out: ED 50 (95% confidence limits), stereotypy counts of FIG. 4) was 3.8 mg/kg, the ED50 ([3]; ip, 1 h, horizontal beam breaks (X, Y plane), nelotanserin 1-10 mg/kg i.p., PCP 10 mg/kg i.p., last 60 minutes, read-out: ED 50 (95% confidence limits), beam breaks data of FIG. 3) was 4.3 mg/kg and the ED50 ([3]; ip, 1 h, nelotanserin 1-10 mg/kg i.p., PCP 10 mg/kg i.p., last 60 minutes, read-out: ED 50 (95% confidence limits), total distance traveled data of FIG. 2) was 3 mg/kg. The ED50 ([3]; i.p., 30 minutes before PCP 10 mg/kg i.p., read-out: ED50 (95% CL), inhibition of PCP-induced hyperlocomotor activity) was 3 mg/kg, the “serotonin-induced intracellular calcium release” value [4] was “inhibited” and the “potency relative to pimavanserin or clozapine, intracellular calcium release” value ([4]; serotonin-induced) was “about 2 fold”. For the same compound, the “selectivity over 5HT2C” value [5] was 80 fold and the “activity in a panel of 66 receptors and ion channels” value [6] was “inactive”.

For NCCc1c[nH]c2ccc(O)cc12 [Compound 5HT, serotonin, reference compound], the “% Max of 5HT” value [1, 7] was 98.20%.
